Data reported in ChEMBL document CHEMBL1201862, “PubChem BioAssay data set” (2004).
Calls of active or inactive are those of the source.

Columns and labels:
[1] = Luminescence Cell-Based Dose Response HTS to Identify Inhibitors of 5'UTR Stem-Loop Driven Prion Protein mRNA Translation in H4 Neuroglioblastoma Cells. [Related pubchem assays: 1827 (Project Summary), 1813 (Primary HTS)]; assay type: functional
[2] = inhibitors of firefly luciferase expression or activity, dose response, H4 neuroglioma cells, luminescence (AID 1990); assay type: functional, cell-based
BJ [3] = assay: cytotoxicity toward Ras-transformed BJeLR fibroblasts, dose response, cell-based, alamar blue fluorescence, cherrypicked samples (AID 2631); assay type: functional; details: Homo sapiens;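 also: confirmatory dose-response assay in RAS-dependent BJ fibroblasts engineered with TERT, LT and ST, with cytotoxicity read by fluorescence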
[4] = cytotoxicity toward DRD oncogenic fibroblasts, dose response, cell-based, non-viral oncogenic, luminescence (AID 1934); assay type: functional; details: Homo sapiens
BJ [5] = assay: cells; assay type: functional, cell-based; details: Homo sapiens
BJ [6] = assay: cytotoxicity toward BJ-TERT fibroblasts, dose response, cell-based, RAS-independent, luminescence (AID 1933); assay type: functional; details: Homo sapiens
[7] = inhibitors of SNCA 5'UTR-driven reporter translation, confirmation, H4 neuroglioma cells, luminescence (AID 1988); assay type: functional, cell-based
BJ [8] = assay: cytotoxicity toward BJ-TERT-LT-ST fibroblasts, dose response, cell-based, RAS-independent, luminescence (AID 1935); assay type: functional; details: Homo sapiens;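 also: BJ fibroblasts immortalized with TERT plus LT and ST oncogenes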
[9] = target: T1, Long-chain-fatty-acid--AMP ligase FadD28 (Mycobacterium tuberculosis, UniProt P9WQ59); assay: Fluorescence polarization aasay to screen for inhibitors that compete for the binding of FadD28 to a bisubstrate Measured in Biochemical System Using Plate Reader - 2147-01_Inhibitor_Dose_CherryPick_Activity.; assay type: functional, Mycobacterium tuberculosis H37Rv
T1 sequence (P9WQ59 whole entry): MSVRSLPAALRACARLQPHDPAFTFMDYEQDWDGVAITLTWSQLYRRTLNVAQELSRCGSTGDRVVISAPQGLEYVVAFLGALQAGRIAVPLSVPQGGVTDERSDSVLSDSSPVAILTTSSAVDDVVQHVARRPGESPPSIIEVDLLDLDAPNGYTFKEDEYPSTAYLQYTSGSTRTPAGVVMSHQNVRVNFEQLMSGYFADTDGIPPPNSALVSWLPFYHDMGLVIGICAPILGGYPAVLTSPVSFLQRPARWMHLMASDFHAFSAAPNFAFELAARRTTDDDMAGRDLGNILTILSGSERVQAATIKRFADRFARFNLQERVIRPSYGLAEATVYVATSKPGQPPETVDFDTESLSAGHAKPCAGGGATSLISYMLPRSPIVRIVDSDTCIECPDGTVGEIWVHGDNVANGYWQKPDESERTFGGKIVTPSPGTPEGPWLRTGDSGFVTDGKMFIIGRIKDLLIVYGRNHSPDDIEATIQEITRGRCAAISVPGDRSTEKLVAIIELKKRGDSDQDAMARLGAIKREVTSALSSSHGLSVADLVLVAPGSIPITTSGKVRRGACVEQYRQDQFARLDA

HeLa = assay: HeLa cell cytotoxicity, dose response, cytotoxicity control for MITF activator project, CellTiter-Glo luminescence, cherry-pick samples (AID 540259); assay type: functional, cell-based; details: Homo sapiens
Cytochrome P450 3A4 [10] = target: T2, Cytochrome P450 3A4 (Homo sapiens, UniProt P08684);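 also: CYP3A4 tested as one member of a cytochrome P450 panel screen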
T2 sequence (P08684 whole entry): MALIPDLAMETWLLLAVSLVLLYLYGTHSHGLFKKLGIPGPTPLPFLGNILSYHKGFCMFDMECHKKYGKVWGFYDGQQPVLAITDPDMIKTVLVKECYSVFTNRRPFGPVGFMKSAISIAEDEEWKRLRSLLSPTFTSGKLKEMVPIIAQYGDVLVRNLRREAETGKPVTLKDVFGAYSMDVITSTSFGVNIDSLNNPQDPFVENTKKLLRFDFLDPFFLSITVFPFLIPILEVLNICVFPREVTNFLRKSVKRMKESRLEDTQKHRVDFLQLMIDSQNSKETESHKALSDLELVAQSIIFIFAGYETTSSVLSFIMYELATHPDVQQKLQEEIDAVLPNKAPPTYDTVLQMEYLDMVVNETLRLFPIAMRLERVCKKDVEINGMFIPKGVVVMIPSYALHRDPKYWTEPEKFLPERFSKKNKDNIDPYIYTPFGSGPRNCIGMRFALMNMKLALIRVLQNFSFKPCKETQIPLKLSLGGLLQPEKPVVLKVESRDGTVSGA

Cytochrome P450 3A4 [11] = target: T2, Cytochrome P450 3A4; remark: listed apart in the source
[12] = target: T3, Endoribonuclease toxin MazF (Escherichia coli K-12, UniProt P0AE70); assay: fluorescent RNA oligo signal without MazF, dose response, counter-screen for MazEF activator project, biochemical, fluorescence, single-stranded RNase substrate (AID 588502); assay type: functional
T3 sequence (P0AE70 whole entry): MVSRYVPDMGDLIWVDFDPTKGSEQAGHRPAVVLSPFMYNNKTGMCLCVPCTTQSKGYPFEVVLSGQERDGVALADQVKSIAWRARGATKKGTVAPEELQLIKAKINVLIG

[13] = target: T3, Endoribonuclease toxin MazF; assay: MazF toxin RNase activators, dose response, biochemical, fluorescence, single-stranded RNA substrate, uHTS hits (AID 588481); assay type: functional
[14] = miR-122 activators in hepatoma reporter cells, dose response, cell-based, Huh7 psiCHECK-miR122, Renilla luciferase, cherry-picked (AID 651956); assay type: functional;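 also: huh7 hepatoma cells stably carrying a psiCHECK-2 miR-122 sensor plasmid; renilla luciferase signal reporting endogenous miR-122 activity after 48 h compound exposure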
[15] = target: Ras and Rab interactor 1/Tyrosine-protein kinase ABL1 (Homo sapiens, UniProt P00519+Q13671); assay type: functional;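 also: biochemical TR-FRET dose-response test measuring inhibition of binding between Rin1 and Abl proteins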
Sequence of Ras and Rab interactor 1/Tyrosine-protein kinase ABL1 (P00519 whole entry): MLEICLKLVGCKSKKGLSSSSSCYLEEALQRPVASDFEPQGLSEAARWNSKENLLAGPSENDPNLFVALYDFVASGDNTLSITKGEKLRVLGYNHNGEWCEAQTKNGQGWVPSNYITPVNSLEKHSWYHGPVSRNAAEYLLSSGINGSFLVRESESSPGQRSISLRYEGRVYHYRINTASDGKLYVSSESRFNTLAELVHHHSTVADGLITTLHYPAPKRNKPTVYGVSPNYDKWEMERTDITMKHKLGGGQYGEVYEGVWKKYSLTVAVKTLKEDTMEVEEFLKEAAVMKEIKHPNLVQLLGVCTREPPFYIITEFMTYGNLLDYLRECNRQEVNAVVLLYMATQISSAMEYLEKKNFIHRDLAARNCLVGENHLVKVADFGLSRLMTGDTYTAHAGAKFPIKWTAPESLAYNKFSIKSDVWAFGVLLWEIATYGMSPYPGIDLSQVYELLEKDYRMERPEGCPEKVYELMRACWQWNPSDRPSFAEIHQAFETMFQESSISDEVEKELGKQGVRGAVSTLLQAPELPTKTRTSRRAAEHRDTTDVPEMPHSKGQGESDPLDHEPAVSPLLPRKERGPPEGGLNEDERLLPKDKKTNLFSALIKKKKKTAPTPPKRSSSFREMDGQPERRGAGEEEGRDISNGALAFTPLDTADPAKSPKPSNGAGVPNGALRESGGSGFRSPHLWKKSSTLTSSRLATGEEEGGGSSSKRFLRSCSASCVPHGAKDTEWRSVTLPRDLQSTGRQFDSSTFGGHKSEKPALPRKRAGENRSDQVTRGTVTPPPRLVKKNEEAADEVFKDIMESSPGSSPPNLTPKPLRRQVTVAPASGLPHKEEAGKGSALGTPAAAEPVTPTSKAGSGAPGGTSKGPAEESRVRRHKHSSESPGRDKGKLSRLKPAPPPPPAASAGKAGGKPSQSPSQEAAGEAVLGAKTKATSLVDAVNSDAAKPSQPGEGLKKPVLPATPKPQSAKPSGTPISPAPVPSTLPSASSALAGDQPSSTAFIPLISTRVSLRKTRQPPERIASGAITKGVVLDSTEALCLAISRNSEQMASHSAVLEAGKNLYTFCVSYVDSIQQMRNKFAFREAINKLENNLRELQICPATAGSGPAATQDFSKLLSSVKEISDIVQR
Sequence of Ras and Rab interactor 1/Tyrosine-protein kinase ABL1 (Q13671 whole entry): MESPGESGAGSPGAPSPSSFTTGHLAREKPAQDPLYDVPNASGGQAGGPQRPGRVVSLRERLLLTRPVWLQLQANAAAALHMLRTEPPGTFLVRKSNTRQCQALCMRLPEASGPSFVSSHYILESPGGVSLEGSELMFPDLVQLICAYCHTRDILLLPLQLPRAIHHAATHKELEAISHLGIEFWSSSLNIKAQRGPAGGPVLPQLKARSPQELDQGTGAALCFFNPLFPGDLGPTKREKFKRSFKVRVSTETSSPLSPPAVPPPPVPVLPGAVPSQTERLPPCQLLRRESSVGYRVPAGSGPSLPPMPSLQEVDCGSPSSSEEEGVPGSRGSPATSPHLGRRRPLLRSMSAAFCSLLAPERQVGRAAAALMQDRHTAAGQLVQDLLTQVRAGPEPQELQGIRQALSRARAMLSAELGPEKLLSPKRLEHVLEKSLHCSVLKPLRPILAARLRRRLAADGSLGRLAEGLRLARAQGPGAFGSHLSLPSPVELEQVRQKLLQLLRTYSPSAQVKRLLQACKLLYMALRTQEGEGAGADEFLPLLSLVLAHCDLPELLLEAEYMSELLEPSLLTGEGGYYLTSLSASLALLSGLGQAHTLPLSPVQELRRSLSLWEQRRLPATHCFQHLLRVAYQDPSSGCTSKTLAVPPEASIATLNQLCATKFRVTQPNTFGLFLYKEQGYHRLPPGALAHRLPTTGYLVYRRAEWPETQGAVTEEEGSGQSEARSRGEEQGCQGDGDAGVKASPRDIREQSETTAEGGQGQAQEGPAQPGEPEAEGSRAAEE

Coagulation factor XII = target: T4, Coagulation factor XII (Homo sapiens, UniProt P00748); assay type: functional;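 also: activated factor XIIa alpha cleaving a fluorogenic AMC peptide substrate; inhibitor potency from loss of enzyme activity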
T4 sequence (P00748 whole entry): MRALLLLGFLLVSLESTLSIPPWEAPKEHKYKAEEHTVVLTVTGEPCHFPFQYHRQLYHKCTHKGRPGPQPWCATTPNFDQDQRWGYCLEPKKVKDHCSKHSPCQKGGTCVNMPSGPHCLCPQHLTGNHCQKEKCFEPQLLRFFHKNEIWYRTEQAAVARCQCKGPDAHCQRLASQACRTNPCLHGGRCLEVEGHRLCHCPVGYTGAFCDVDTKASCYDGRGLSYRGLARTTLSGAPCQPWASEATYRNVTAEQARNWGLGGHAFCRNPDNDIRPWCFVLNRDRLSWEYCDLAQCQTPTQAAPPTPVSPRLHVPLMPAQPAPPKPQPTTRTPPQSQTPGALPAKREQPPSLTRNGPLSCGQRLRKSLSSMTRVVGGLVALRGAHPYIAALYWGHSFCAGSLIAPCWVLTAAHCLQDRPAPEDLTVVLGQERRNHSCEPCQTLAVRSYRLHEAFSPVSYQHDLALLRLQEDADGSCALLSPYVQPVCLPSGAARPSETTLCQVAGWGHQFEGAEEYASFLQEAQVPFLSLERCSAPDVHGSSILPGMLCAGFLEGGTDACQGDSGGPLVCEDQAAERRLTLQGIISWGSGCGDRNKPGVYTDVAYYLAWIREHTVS

[16] = THP-1 cell cytotoxicity, dose response, cytotoxicity control for Vif-APOBEC3G degradation inhibitor project, THP-1 cells (AID 1117359); assay type: functional; details: Human immunodeficiency virus 1, THP-1
[17] = target: T5, Carboxy-terminal domain RNA polymerase II polypeptide A small phosphatase 1 (Homo sapiens, UniProt Q9GZU7); assay: inhibitors of CTDSP1, concentration-response testing, biochemical assay, absorbance-based, actives from ultra-high-throughput screening (AID 540297); assay type: functional
T5 sequence (Q9GZU7 whole entry): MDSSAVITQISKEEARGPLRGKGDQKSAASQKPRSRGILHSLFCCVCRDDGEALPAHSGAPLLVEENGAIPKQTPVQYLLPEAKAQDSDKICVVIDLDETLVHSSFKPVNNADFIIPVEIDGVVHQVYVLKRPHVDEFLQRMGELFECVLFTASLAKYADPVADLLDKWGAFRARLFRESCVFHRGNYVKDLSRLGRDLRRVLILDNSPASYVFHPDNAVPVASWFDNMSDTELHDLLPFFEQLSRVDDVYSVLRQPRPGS

[18] = target: DNA (cytosine-5)-methyltransferase 1 (Homo sapiens, UniProt P26358); assay: DNMT1 methyltransferase inhibitors, confirmation, biochemical, fluorescent molecular beacon (AID 602386); assay type: functional
Sequence of DNA (cytosine-5)-methyltransferase 1 (P26358 whole entry): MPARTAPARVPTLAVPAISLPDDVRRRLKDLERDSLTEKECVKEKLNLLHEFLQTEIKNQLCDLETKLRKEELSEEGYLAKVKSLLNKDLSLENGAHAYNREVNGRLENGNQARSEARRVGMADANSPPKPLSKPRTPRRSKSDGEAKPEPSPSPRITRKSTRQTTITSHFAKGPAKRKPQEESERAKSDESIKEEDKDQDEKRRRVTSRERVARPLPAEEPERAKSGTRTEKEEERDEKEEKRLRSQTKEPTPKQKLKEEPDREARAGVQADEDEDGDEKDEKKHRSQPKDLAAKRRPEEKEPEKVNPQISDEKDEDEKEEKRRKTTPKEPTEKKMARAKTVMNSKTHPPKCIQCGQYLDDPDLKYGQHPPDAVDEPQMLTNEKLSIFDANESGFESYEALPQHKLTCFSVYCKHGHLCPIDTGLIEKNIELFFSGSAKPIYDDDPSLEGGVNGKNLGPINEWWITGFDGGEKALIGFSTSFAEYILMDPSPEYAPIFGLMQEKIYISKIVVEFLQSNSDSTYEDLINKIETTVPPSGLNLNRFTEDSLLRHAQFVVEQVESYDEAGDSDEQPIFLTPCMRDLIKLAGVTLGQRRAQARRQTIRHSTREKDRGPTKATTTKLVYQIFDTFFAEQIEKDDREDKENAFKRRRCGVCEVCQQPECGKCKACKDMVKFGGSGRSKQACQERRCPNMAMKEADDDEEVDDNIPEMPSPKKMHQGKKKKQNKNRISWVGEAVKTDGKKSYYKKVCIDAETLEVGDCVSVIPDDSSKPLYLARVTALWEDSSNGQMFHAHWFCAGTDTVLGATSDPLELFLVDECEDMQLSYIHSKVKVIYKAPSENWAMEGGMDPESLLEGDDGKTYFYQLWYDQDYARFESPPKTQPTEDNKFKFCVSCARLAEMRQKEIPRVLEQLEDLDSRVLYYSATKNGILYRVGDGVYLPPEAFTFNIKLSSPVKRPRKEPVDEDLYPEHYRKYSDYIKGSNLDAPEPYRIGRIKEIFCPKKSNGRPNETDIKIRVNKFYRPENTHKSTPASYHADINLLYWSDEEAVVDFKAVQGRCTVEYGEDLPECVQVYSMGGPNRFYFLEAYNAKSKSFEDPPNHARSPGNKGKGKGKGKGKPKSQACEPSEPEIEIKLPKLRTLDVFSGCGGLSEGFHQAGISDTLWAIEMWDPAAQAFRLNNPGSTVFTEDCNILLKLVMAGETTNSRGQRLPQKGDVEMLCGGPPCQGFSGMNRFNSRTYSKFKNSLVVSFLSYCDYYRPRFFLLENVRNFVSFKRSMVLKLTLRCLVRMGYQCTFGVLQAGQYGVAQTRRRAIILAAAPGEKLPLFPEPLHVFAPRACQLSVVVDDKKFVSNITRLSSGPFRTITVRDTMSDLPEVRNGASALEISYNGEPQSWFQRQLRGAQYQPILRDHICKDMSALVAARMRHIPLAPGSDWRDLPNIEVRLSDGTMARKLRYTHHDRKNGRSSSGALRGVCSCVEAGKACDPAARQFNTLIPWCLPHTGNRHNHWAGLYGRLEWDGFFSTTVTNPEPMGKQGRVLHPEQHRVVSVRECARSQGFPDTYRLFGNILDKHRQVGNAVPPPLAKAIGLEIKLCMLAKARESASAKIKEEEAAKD

Which EC50 [1] does the source give for `COc1ccc(S(=O)(=O)N2CCOCC2)cc1NC(=O)CCNC(=O)c1ccc(Br)cc1` here?
Its EC50 is 5.78 µM (active).

And the EC50 [2]?
Its EC50 is 10.6 µM (active).

What about the EC50 (BJ [3]) of the same compound?
Its EC50 is 6.09 µM (active).

What about the EC50 [4] of the same compound?
The EC50 was > 150 µM (not active).

And the EC50 (BJ [5])?
The EC50 was 2.84 µM (inconclusive).

What about the EC50 (BJ [6]) of the same compound?
The EC50 was > 150 µM (not active).

And the EC50 [7]?
Its EC50 is 1.09 µM (active).

What about the EC50 (BJ [8]) of the same compound?
The EC50 was 2.02 µM (active).

Which AC50 [9] does the source give for `COc1ccc(C2CC(=O)Oc3c(C(C)C)ccc(C)c32)cc1` (stereo not given) here?
The AC50 was > 100 µM (inactive).

For `Nc1ccccc1C#Cc1ccccc1`, which AC50 (HeLa) is on record?
Its AC50 is > 350 µM (inactive).

And the AC50 (Cytochrome P450 3A4 [10])?
The AC50 was 15.8 µM (inconclusive).

And the AC50 (Cytochrome P450 3A4 [11])?
Its AC50 is 15.8 µM (inconclusive).

Which results are given for `N#C/C(=C\C1=C(N2CCOCC2)C(=C/c2cccc([N+](=O)[O-])c2)/CC1)C(=O)Nc1ccccc1F`?
EC50 [12]: > 99 µM (inactive); EC50 [13]: > 99 µM (inactive)

Which results are given for `COc1ccc(C(=O)N/N=C\c2coc3ccc(C)cc3c2=O)cc1`?
EC50 [12]: > 99 µM (inactive); EC50 [13]: > 99 µM (inactive)

For `COc1ccc(NC(=O)CN(C)C(=O)CNC(=O)c2sc3ccccc3c2Cl)cc1`, which AC50 (HeLa) is on record?
Its AC50 is 41.6 µM (active).

Which AC50 [14] does the source give for `COc1cccc(-c2csc(N3CCN(CC(=O)Nc4ccc5c(c4)OCO5)CC3)n2)c1` here?
The AC50 was 17.2 µM (active).

For `O=C(Cc1ccc(NC(=O)C2CCN(C(=O)C3CCCC3)CC2)cc1)Nc1ccc(C(=O)N2CCOCC2)cc1`, which IC50 [15] is on record?
The IC50 was 1.54 µM (active).

For `CN(C)c1ccc(C(=S)N2CCN(c3ccc([N+](=O)[O-])cc3)CC2)cc1`, which IC50 (Coagulation factor XII) is on record?
The IC50 was > 50 µM (inactive).

With `COCCN(C(=O)C1CC1)c1nnc(-c2ccc(C)cc2)s1` as the compound, how does the IC50 (Coagulation factor XII) read?
Its IC50 is > 50 µM (inactive).

With `COC(=O)c1cccc(NC(=O)c2ccc[n+]([O-])c2)c1` as the compound, how does the IC50 [15] read?
Its IC50 is 18 µM (inactive).

Which CC50 [16] does the source give for `COc1ccc(S(=O)(=O)N2CCN(C(=O)c3cc4c(s3)CCC4)CC2)cc1` here?
The CC50 was > 40 µM (active).

What about the IC50 [17] of the same compound?
The IC50 was 1.61 µM (active).

And the IC50 [18]?
Its IC50 is 11.3 µM (active).
